Source: patent publication US20180042231A1, “Systems and Methods for the Continuous On-Site Production of Peroxycarboxcylic Acid Solutions” (Eltron Water Systems, LLC, priority 2016, published 2018)

Legend:
[1] = Degradation (self-decay) of PAA solution over time; assay type: physicochemical; details: for degradation rate of non-equilibrium PAA: 2% concentration
Description: Sometimes it is desirable to remove the very strong odor of the final equilibrium PAA product, such as when it is used indoors. Anti-microbial efficacy is roughly the same whether the PAA is in an acidic or alkaline state. The two most significant differences are: 1) alkaline PAA has no odor and 2) alkaline PAA self-degrades very rapidly when the pH is above 8, usually at 5-10% per hour. In situations where the PAA is to be used within minutes or hours of when it is made alkaline, the addition of an alkali earth metal in solution with water can be used alone or with more water to both dilute the PAA and raise its pH to any desired level, eliminating its odor. At this point other materials may be added to the alkaline PAA such as detergents, fragrance additives and even foaming agents.
The system of the present invention is designed such that the PAA is produced in a unique manner which differs substantially from prior art processes, the end product being inherently not at equilibrium. At 2% concentration, it degrades at about 6% per day if the pH is below 7 (acidic) and at 5-10% per hour when the pH is above 7. Use of a stabilizer will not halt that decay. Accordingly, the system herein disclosed is designed to generate PAA to be used within minutes or hours of when it is made, thereby eliminating the need for a stabilizer used by every other PAA manufacturer in the world.

[2] = Dissolution of triacetin in water; assay type: physicochemical; details: room temperature
Description: A second method involves pre-dissolving traicetin in water outside the generator using time and mixing to eliminate the strands and globules. This approach requires a significant amount of extra water to be supplied to the generator, since at room temperature, the maximum amount of triacetin that can be dissolved is only approximately 4%.

## CC(=O)OO [PAA, peracetic acid]
[1]; pH above 7
  degradation rate of non-equilibrium PAA: 5-10 % per hour
[1]; pH below 7 (acidic)
  degradation rate of non-equilibrium PAA: about 6 % per day
[1]; equilibrium PAA made alkaline, pH above 8
  self-degradation rate of alkaline PAA: 5-10 % per hour

## CC(=O)OCC(COC(C)=O)OC(C)=O [triacetin, 1,2,3-triacetoxypropane]
[2]
  maximum amount of triacetin that can be dissolved in water: approximately 4%
